Experimental findings from patent publication US4432982A, “Polycyclic compounds substituted on the A-ring, pharmaceutical compositions containing them, and methods of treating psoriasis with them” (Richter Gedeon Vegyeszeti Gyar Rt., priority 1981, dated 1984) are described below.

Structures can show the parent of a compound that is named as a salt.

The assay concerns phosphodiesterase isolated from cattle heart. Briefly: Phosphodiesterase inhibition, radioisotope method with 3H-c-AMP, enzyme isolated from cattle heart. The class given is biochemical. Particulars: control without inhibitor = 100%, 20 minutes incubation. How it is done:
The model experiments were performed by means of phosphodiesterase isolated from animal tissues (rat brain, cattle brain, cattle heart). The enzyme was isolated by the technique of J. Schroder and H. V. Richenberg [Biochem. Biophys. […] The measurement was first carried out without the inhibiting substance and then in the presence of one of the compounds of the general formula (I) as an inhibiting agent, after an incubation period of 20 minutes [N.S. Arch. […] A solution of papaverine used as reference material was added to the enzyme preparate in an analogous manner.
The activity of the solutions containing the compounds of formula (I) and papaverine was expressed in percents of the control (enzyme solution without any inhibitor substance, the activity thereof was taken 100%).

Setting [1] is: 1 × 10^-5 mole/lit. test compound, 10 µM.
[2] abbreviates: 5 × 10^-5 mole/lit. test compound, 50 µM.
Setting [3] is: 5 × 10^-6 mole/lit. test compound, 5 µM.

`CC[C@@]12C=C(COC(=O)c3cc(OC)c(OC)c(OC)c3)n3c4c(c5cc(OC)ccc53)CCN(CCC1)[C@H]42` [10-Methoxy-apovincaminol-3',4',5'-trimethoxybenzoate]: the “effect of the test compound on enzyme activity in % of the control” value (“effect … in % of the control” below) by setting is: under setting [1], 40.3%; under setting [2], 21.3%; under setting [3], 59.1%.

For `CC[C@@]12C=C(COC(=O)c3cc(OC)c(OC)c(OC)c3)n3c4c(c5ccc(Br)cc53)CCN(CCC1)[C@H]42` [(-)-11-Bromo-apovincaminol-3',4',5'-trimethoxy-benzoate hydrochloride], the “effect … in % of the control” value was found to be 21.8% under setting [1], 21.8% under setting [2] and 31.9% under setting [3].

On to `CC[C@@]12C=C(COC(=O)c3cc(OC)c(OC)c(OC)c3)n3c4c(c5cc(Br)ccc53)CCN(CCC1)[C@H]42` [10-Bromo-apovincaminol-3',4',5'-trimethoxy-benzoate], for which the “effect … in % of the control” value runs as follows: under setting [1], 61.8%; under setting [3], 67.8%.

Regarding `COc1ccc(Cc2nccc3cc(OC)c(OC)cc23)cc1OC` [Papaverine HCl, reference compound], the “effect … in % of the control” value is, setting by setting: under setting [1], 82.7%; under setting [2], 43.7%; under setting [3], 91.3%.
